“Also recorded” adds a separate entry of the source.
What was measured:
[1] = system: 3T3-LI mature adipocytes; assay: Oil Red O staining of lipid accumulation in adipocytes; assay type: cell-based, murine; details: for number and size / morphology of lipid droplets vs. non-treated control: Oil Red O micrographs, peptides at 100 μM, Day 21, three times per week for three weeks; for reduction of lipid accumulation / lipid contents (in words): murine-based in vitro systems, mature adipocytes; for decrease in degree of lipid accumulation: quantitative Oil Red O analysis, Day 21
Experimental: FIG. 2A-G: Representative photomicrographs showing Oil Red O-stained mature adipocytes treated with peptides at 100 μM (Day 21). H: Quantitative analysis of the lipids accumulated in the adipocytes (Day 21). Control absorbance: 0.526 (Red line). I: Relative cell counts on day 21.
The effects of the minimal short peptides in blocking lipid accumulation in adipocytes were compared with their parent full-length peptide. After generating five different 3 amino acid fragments (KGG, GGR, GRA, RAK, and AKD) from the original ATS peptide (KGGRAKD (SEQ ID NO:1)), each peptide was administered to 3T3-LI pre-adipocytes in five varying concentrations. Peptides were treated to the adipocytes three times per week for three weeks. Oil Red O staining was utilized to assess the lipid contents in mature adipocytes in culture. The morphological characteristics of 3T3-LI mature adipocytes were observed by microscopy. […] Furthermore, the lipids were quantitatively analyzed. […] At the end point, the cell number was almost the same across the treatment groups, meaning that the reduction in lipid accumulation is not a consequence of toxicity of the peptides (FIG. 2I).
The number of viable cells is counted prior to Oil Red O staining using Cell Counting Kit 8 (Dojindo). This cell viability study allows one to determine potential toxicities of the peptides and compensate for cell number variation-causing artifacts. Oil Red O is dissolved in isopropanol at […] to create a working solution. 12 ml of Oil Red O working solution is mixed with 8 ml dH2O and incubated for 10 minutes. This solution is then filtered using a 0.2 μm syringe filter. Adipocytes seeded on 96-well plates are washed with PBS twice. 10% formaldehyde is added for initial fixation and the plates are incubated for at least 30 minutes. The formaldehyde is removed and the cells are once again washed twice, this time with dH2O. 60% isopropanol is added to each well. The plates are incubated for 5 minutes. The isopropanol is removed from the wells and replaced with Oil Red O working solution. The plates are incubated for an additional 10 minutes. The Oil Red O solution is removed and washed four times with dH2O. Lastly, digital micrographs of the lipid droplets in adipocytes are taken using a light microscope. After the staining protocol, all plates are washed three times with 60% isopropanol. Each time, 5 minutes of gentle rocking was used. The Oil Red O is extracted with 100% isopropanol with gentle rocking for 5 minutes. 200 μl isopropanol per well is used as a background to measure absorbance at 492 nm using a BioTek microplate reader.

[2] = system: DIO mice, obesity progression model (OPM); assay: Body weight in pre-obese mice fed high fat diet (obesity progression model, OPM); assay type: in vivo; details: for anti-obesity efficacy (body weight): oral administration
Experimental: FIG. 3A-H: IP Preobese Body Weight. Relative body weight measurements for IP injected pre-obese mice. I-J: Body weight change. Changes in body weight compared using HFD control group as baseline value A1-F1: GTT. Blood glucose levels of peptide groups at endpoint, post-glucose injection (after 16 h fasting). A2-F2: ITT. Blood glucose levels of peptide groups at endpoint, post-insulin injection (after 6 h fasting).
FIG. 4A-F: SC Pre-obese Body Weight. Relative body weight measurements for SC injected pre-obese mice. G-H: Body weight change. Changes in body weight compared using HFD control group as baseline value. A1-F1: GTT. Blood glucose levels of peptide groups at endpoint, post-glucose injection (after 16 h fasting). A2-F2: ITT. Blood glucose levels of peptide groups at endpoint, post-insulin injection (after 6 h fasting).
FIG. 7A-F: Oral/Feeding Pre-obese Body Weight. Relative body weight measurements for orally administered pre-obese mice. A1-F1: GTT. Blood glucose levels at endpoint, post-glucose injection (after 16 h fasting). A2-F2: ITT. Blood glucose levels at endpoint, post-insulin injection (after 6 h fasting).
Prior to oral administration, peptides were administered to DIO mice via intraperitoneal (IP) and subcutaneous (SC) injections. This study was divided into two phases:
(§1) In the first phase, peptides were tested on pre-obese mice that were being fed high fat diet (HFD) to induce obesity (obesity progression model, OPM). In the second phase, these peptides were given to mice that had already developed obesity (obesity model, OM). […] As the activity of these three peptides varies depending on the injection route and the disease status, all three peptides, GGR, RAK, and AKD, were tested by oral administration.
Prior to oral administration, GGR, RAK, AKD, full-length ATS, and scrambled RKG peptides were administered to OPM mice via IP and SC injections to further screen an ideal peptide composition. PBS was included as a vehicle group. GGR, RAK, and AKD peptides were discovered to impede body weight gain in OPM mice. GGR and RAK were effective when given IP injections and AKD was effective by SC injections (FIGS. 3, 4).

[3] = system: DIO mice, obesity model (OM); assay: Body weight in mice that had already developed obesity (obesity model, OM); assay type: in vivo; details: OM (post-obese) mice
Experimental: FIG. 5A-F: IP Post-obese Body Weight. Relative body weight measurements for IP injected post-obese mice. G-H: Body weight change. Changes in body weight compared using HFD control group as baseline value. A1-F1: GTT. Blood glucose levels of peptide groups at endpoint, post-glucose injection (after 16 h fasting). A2-F2: ITT. Blood glucose levels of peptide groups at endpoint, post-insulin injection (after 6 h fasting).
FIG. 6A-F: SC Post-obese Body Weight. Relative body weight measurements for SC injected post-obese mice. G-H: Body weight change. Changes in body weight compared using HFD control group as baseline value. A1-D1,F1: GTT. Blood glucose levels of peptide groups at endpoint, post-glucose injection (after 16 h fasting). A2-D2,F2: ITT. Blood glucose levels of peptide groups at endpoint, post-insulin injection (after 6 h fasting).
FIG. 8A-F: Oral/Feeding Post-obese Body Weight. Relative body weight measurements for orally administered post-obese mice. A1-F1: GTT. Blood glucose levels at endpoint, post-glucose injection (after 16 h fasting). A2-F2: ITT. Blood glucose levels at endpoint, post-insulin injection (after 6 h fasting).
as §1
The second phase signified the post-obesity stage, where the same methods from phase 1 were used on OM mice.

[4] = biological target: T1, prohibitin (Mus musculus, UniProt P67778); assay: ATS/prohibitin binding by ATS magnetic bead immunoprecipitation and western blot; details: fractionated proteins from adipocytes incubated with ATS magnetic beads, western blot
T1 construct: Fractionated proteins isolated from adipocytes were incubated with the ATS magnetic beads; endogenous in cells; probably 3T3-L1
T1 sequence (P67778 2-272 limits assumed): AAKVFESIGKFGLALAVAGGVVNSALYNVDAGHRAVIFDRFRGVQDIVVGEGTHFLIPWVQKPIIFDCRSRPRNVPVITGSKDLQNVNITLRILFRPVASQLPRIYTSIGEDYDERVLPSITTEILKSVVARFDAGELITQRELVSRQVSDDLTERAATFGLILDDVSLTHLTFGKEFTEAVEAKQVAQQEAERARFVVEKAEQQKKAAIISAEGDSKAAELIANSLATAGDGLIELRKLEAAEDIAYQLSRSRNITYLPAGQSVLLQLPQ
Excerpt: FIG. 1A: ATS/prohibitin binding determined by immunoprecipitation and western blot. FIG. 1B: Location and degree of prohibitin expression in pre- or mature adipocytes. PM, plasma membrane; Cyt, Cytoplasm. C: Confocal micrographs showing the location of prohibitin in mature- or pre-adipocytes.
It was confirmed that prohibitin shifts its location to the cell membrane as adipogenesis progresses and ATS binds to prohibition. The ATS/prohibitin binding was verified in pre- or mature adipocytes (Won, Y. W. et al. Nat Mater 13, 1157-1164, (2014)). Fractionated proteins isolated from adipocytes were incubated with the ATS magnetic beads and the protein captured by ATS was identified by western blotting. […] Prohibitin is observed in several intracellular locations at varying expression levels depending on the degree of adipogenesis (Wang, P. et al. Cell Mol Life Sci 61, 2405-2417, (2004); Patel, N. et al. Proceedings of the National Academy of Sciences of the United States of America 107, 2503-2508, (2010)). The degree and location of prohibitin expression in pre- or mature adipocytes was determined. […] Confocal microscopy also verified the prohibitin expression on the cell membrane of mature adipocytes (FIG. 1C). High-level prohibitin expression on the cell membrane of mature adipocytes is important to the ATS/prohibitin interaction.

[5] = system: epididymal fat tissues of DIO mice; assay: Histological analysis of fat pads (adipocyte number and size); assay type: in vivo
Experimental: FIG. 9. Histological analysis fat pads. An automated system detected and counted adipocytes (yellow line). Adipocyte number and size: average of 3 hpf images from 2 mice (total 6 images/group).
GGR, RAK, and AKD peptides were tested in OPM and OM mice by oral administration. […] In obesity progression, adipocytes increase in both number and size due to escalating lipid accumulation (Parlee, S. D., et al., Methods Enzymol 537, 93-122, (2014)). Using the methods described above, abdominal fat pads of GGR, RAK, AKD, or PBS-treated DIO mice were histologically analyzed. Epididymal fat tissues were harvested from two mice per experimental group. All samples were fixed in 4% paraformaldehyde, H&E-stained, and imaged. At a 10× magnification, adipocyte cell counting was performed on the digital slide images using an automated adipocyte counting macro with the ImageJ software. A default thresholding method was used and [cell] sizing boundaries of 40-40,000 were set. Limitations of the segmentation tool led to some erroneous selections or regions of interest (ROI), which were manually corrected by adding or erasing lines. The number of cells per representative field were then determined using the ROI manager in ImageJ. Two or three high power fields (hpf) per tissue and two tissue samples per group were analyzed to reduce variability. Average cell count for each group was calculated accordingly. Areas of all adipocytes of interest were measured using the ROI measurement tool (ImageJ) and average area per cell was calculated accordingly.
The primary function of adipocytes is to store energy in the form of lipids. The volume of lipid stored in an adipocyte cell increases as the third power of the diameter. Because mature adipocytes are composed of large lipid droplets that are surrounded by very thin cytoplasmic layers, the increase in volume of an adipocyte cell likely indicates increased lipid storage. Thus, smaller adipocyte size/area translates to reduced lipid accumulation.

| Substance | number and size / morphology of lipid droplets vs. non-treated control [1] | reduction of lipid accumulation / lipid contents (in words) [1] | decrease in degree of lipid accumulation [1] | prevention of body weight gain ([2]; IP injections) | prevention of body weight gain ([3]; IP injections) | prevention of body weight gain ([3]; SC injections) | further results |
| --- | --- | --- | --- | --- | --- | --- | --- |
| AKD | smaller than those in the non-treated control | able to reduce lipid contents in mature Adipocytes; also recorded: effective in reducing lipid accumulation | approximately 20% | – | – | – | prevention of body weight gain ([2]; SC injections): best working peptide; also recorded: effective; anti-obesity efficacy (body weight) [2]: efficacious over GGR |
| GGR | smaller than those in the non-treated control | able to reduce lipid contents in mature Adipocytes; also recorded: effective in reducing lipid accumulation | approximately 20% | positive effects on prevention of body weight gain; also recorded: effective | positive effects on prevention of body weight gain | effective | – |
| GRA | moderate differences in the morphology of lipid droplets | – | – | – | – | – | – |
| KGG | moderate differences in the morphology of lipid droplets | – | – | – | – | – | – |
| KGGRAKD (SEQ ID NO:1) [ATS, parent full-length peptide, reference compound] | smaller than those in the non-treated control | – | – | – | – | – | ATS/prohibitin binding [4]: specifically binds to prohibitin |
| RAK | smaller than those in the non-treated control | able to reduce lipid contents in mature Adipocytes; also recorded: effective in reducing lipid accumulation | approximately 20% | positive effects on prevention of body weight gain; also recorded: effective | positive effects on prevention of body weight gain | effective | anti-obesity efficacy (body weight) [2]: efficacious over GGR; also recorded: has anti-obesity efficacy in both models; anti-obesity efficacy (body weight) ([3]; oral administration): has anti-obesity efficacy in both models; activity by histological analysis of the fat pads ([5]; DIO mice): more active than GGR; also recorded: highest efficacy; average cell count per field ([5]; H&E-stained epididymal fat, 10× magnification, among GGR, RAK, AKD, PBS groups): highest average cell count per field; average adipocyte area per cell ([5]; H&E-stained epididymal fat, among GGR, RAK, AKD, PBS groups): lowest average adipocyte area per cell |
| RKG [reference compound] | – | – | – | did not show meaningful efficacy over the vehicle group; also recorded: no anti-obese effects; also recorded: no anti-obesity effects | did not show meaningful efficacy over the vehicle group; also recorded: no anti-obesity effects | no anti-obesity effects | prevention of body weight gain ([2]; SC injections): no anti-obese effects; also recorded: no anti-obesity effects |

From US20240238362A1, “ANTI-OBESITY PEPTIDES AND USES THEREOF” (Arizona Board of Regents on Behalf of the University of …, priority 2020, published 2024)
